Assay results as given in ChEMBL document CHEMBL4699511, “Cedrol, a Sesquiterpene Alcohol, Enhances the Anticancer Efficacy of Temozolomide in Attenuating Drug Resistance via Regulation of the DNA Damage Response and MGMT Expression” (J Nat Prod, 2020).
Activity calls are given as the source filed them. The rule behind the calls is not given here.

Legend:
DBTRG-05MG [1] = assay: Synergistic cytotoxicity against human DBTRG-05MG cells assessed as synergistic effect index at 134.9 uM after 48 hrs in presence of 412.1 uM TMZ by MTT assay; type: functional
DBTRG-05MG [2] = assay: Synergistic cytotoxicity against human DBTRG-05MG cells assessed as combination index at 89.9 uM after 48 hrs in presence of 309 uM TMZ by MTT assay; type: functional
DBTRG-05MG [3] = assay: Synergistic cytotoxicity against human DBTRG-05MG cells assessed as combination index at 134.9 uM after 48 hrs in presence of 412.1 uM TMZ by MTT assay; type: functional
RG2 [4] = assay: Synergistic cytotoxicity against rat RG2 cells assessed as synergistic effect index at 112.4 uM after 48 hrs in presence of 515.1 uM TMZ by MTT assay; type: functional
[5] = Synergistic cytotoxicity against rat CTX TNA2 cells assessed as synergistic effect index at 89.9 uM after 48 hrs in presence of 309 uM TMZ by MTT assay; type: cell-based; conditions: ctx tna2, 48 h
[6] = Synergistic cytotoxicity against rat CTX TNA2 cells assessed as synergistic effect index at 112.4 uM after 48 hrs in presence of 309 uM TMZ by MTT assay; type: cell-based; conditions: ctx tna2, 48 h
[7] = Synergistic cytotoxicity against rat CTX TNA2 cells assessed as synergistic effect index at 112.4 uM after 48 hrs in presence of 515.1 uM TMZ by MTT assay; type: cell-based; conditions: ctx tna2, 48 h
[8] = Synergistic cytotoxicity against rat CTX TNA2 cells assessed as combination index at 89.9 uM after 48 hrs in presence of 206 uM TMZ by MTT assay; type: cell-based; conditions: ctx tna2, 48 h
[9] = Synergistic cytotoxicity against rat CTX TNA2 cells assessed as combination index at 112.4 uM after 48 hrs in presence of 515.1 uM TMZ by MTT assay; type: cell-based; conditions: ctx tna2, 48 h
[10] = Synergistic cytotoxicity against rat CTX TNA2 cells assessed as combination index at 134.9 uM after 48 hrs in presence of 309 uM TMZ by MTT assay; type: cell-based; conditions: ctx tna2, 48 h
DBTRG-05MG [11] = assay: Induction of cell cycle arrest in human DBTRG-05MG cells assessed as accumulation at G2/M phase at 112.4 uM after 6 hrs by propidium iodide staining based flow cytometric analysis (reference value: 30.08 +/- 0.1%); type: functional
DBTRG-05MG [12] = assay: Induction of cell cycle arrest in human DBTRG-05MG cells assessed as accumulation at S phase at 112.4 uM after 6 hrs in presence of TMZ by propidium iodide staining based flow cytometric analysis (reference value: 22.76 +/- 1.56%); type: functional
DBTRG-05MG [13] = assay: Induction of cell cycle arrest in human DBTRG-05MG cells assessed as accumulation at G2/M phase at 112.4 uM after 24 hrs by propidium iodide staining based flow cytometric analysis (reference value: 30.08 +/- 0.1%); type: functional
RG2 [14] = assay: Induction of cell cycle arrest in rat RG2 cells assessed as accumulation at S phase at 112.4 uM after 12 hrs in presence of TMZ by propidium iodide staining based flow cytometric analysis (reference value: 20.15 +/- 2.44%); type: functional
RG2 [15] = assay: Induction of cell cycle arrest in rat RG2 cells assessed as accumulation at G0/G1 phase at 112.4 uM after 48 hrs by propidium iodide staining based flow cytometric analysis (reference value: 57.81 +/- 1.9%); type: functional
DBTRG-05MG [16] = assay: Induction of cell cycle arrest in human DBTRG-05MG cells assessed as CDK2 expression at 112.4uM after 48 hrs by Western blot analysis (reference value: 1); type: functional
DBTRG-05MG [17] = assay: Induction of cell cycle arrest in human DBTRG-05MG cells assessed as CDK2 expression at 112.4uM after 48 hrs in presence of TMZ by Western blot analysis (reference value: 1); type: functional
RG2 [18] = assay: Induction of cell cycle arrest in rat RG2 cells assessed as CyclinD1 expression at 112.4 uM after 48 hrs by Western blot analysis (reference value: 1); type: functional
[19] = target: MAP kinase p38 (Homo sapiens) (UniProt O15264+Q15759+Q16539+P53778); assay: Inhibition of p38 phosphorylation at Tyr182 residues in human DBTRG-05MG cells at 112.4uM after 48 hrs by Western blot analysis (reference value: 1); type: cell-based
[20] = Effect on JNK expression in human DBTRG-05MG cells at 112.4uM after 48 hrs in presence of TMZ by Western blot analysis (reference value: 1); type: functional
[21] = Effect on AKT expression in rat RG2 cells at 112.4uM after 48 hrs in presence of TMZ by Western blot analysis (reference value: 1); type: functional
[22] = Effect on p38 expression in rat RG2 cells at 112.4uM after 48 hrs in presence of TMZ by Western blot analysis (reference value: 1); type: functional
DBTRG-05MG [23] = assay: Induction of apoptosis in human DBTRG-05MG cells assessed as cleaved caspace-3 expression at 112.4 uM after 48 hrs by Western blot analysis (reference value: 1); type: functional
RG2 [24] = assay: Induction of apoptosis in rat RG2 cells assessed as Bcl2 expression at 112.4 uM after 48 hrs in presence of TMZ by Western blot analysis (reference value: 1); type: functional
RG2 [25] = assay: Induction of apoptosis in rat RG2 cells assessed as cleaved PARP expression at 112.4 uM after 48 hrs in presence of TMZ by Western blot analysis (reference value: 1); type: functional
DBTRG-05MG [26] = assay: Induction of DNA damage in human DBTRG-05MG cells at 112.4 uM after 48 hrs in presence of TMZ by p.H2A.X staining based fluorescent immunocytochemistry method; type: functional, cell-based
RG2 [27] = assay: Induction of DNA damage in rat RG2 cells assessed as ATR phosphorylation at ser428 residues at 112.4 uM after 48 hrs in presence of TMZ by Western blot analysis (reference value: 1); type: functional
RG2 [28] = assay: Induction of DNA damage in rat RG2 cells assessed as Chk2 phosphorylation at Thr68 at 112.4 uM after 48 hrs in presence of TMZ by Western blot analysis (reference value: 1); type: functional
DBTRG-05MG [29] = assay: Potentiation of TMZ-induced antitumor activity against human DBTRG-05MG cells xenografted in BALB/c nude mouse assessed as increase in survival time at 75 mg/kg, sc co-treated with TMZ for 18 days; type: functional, organism-based; conditions: time 18.0 day
DBTRG-05MG [30] = assay: Induction of cell cycle arrest in human DBTRG-05MG cells assessed as accumulation at G2/M phase at 206 uM after 24 hrs by propidium iodide staining based flow cytometric analysis (reference value: 30.08 +/- 0.1%); type: functional
RG2 [31] = assay: Induction of cell cycle arrest in rat RG2 cells assessed as accumulation at G0/G1 phase at 206 uM after 24 hrs by propidium iodide staining based flow cytometric analysis (reference value: 57.81 +/- 1.9%); type: functional
DBTRG-05MG [32] = assay: Induction of apoptosis in human DBTRG-05MG cells assessed as phosphorylated caspace-3 expression at 206 uM after 48 hrs by Western blot analysis (reference value: 1); type: functional
RG2 [33] = assay: Induction of apoptosis in rat RG2 cells assessed as Bcl2 expression at 206 uM after 48 hrs by Western blot analysis (reference value: 1); type: functional

## C[C@@H]1CC[C@H]2C(C)(C)[C@H]3C[C@@]12CC[C@@]3(C)O [CEDROL]
DBTRG-05MG [1]
  Activity_index: 0.9
DBTRG-05MG [2]
  CI: 0.74
DBTRG-05MG [3]
  CI: 0.6
RG2 [4]
  Activity_index: 0.83
[5]
  Activity_index: 0.49
[6]
  Activity_index: 0.51
[7]
  Activity_index: 0.7
[8]
  CI: 1.13
[9]
  CI: 0.87
[10]
  CI: 1.13
DBTRG-05MG [11]
  Activity: 30.35%
DBTRG-05MG [12]
  Activity: 18.29%
DBTRG-05MG [13]
  Activity: 26.38%
RG2 [14]
  Activity: 21.29%
RG2 [15]
  Activity: 61.9%
DBTRG-05MG [16]
  fold change (FC): 0.7
DBTRG-05MG [17]
  fold change (FC): 0.7
RG2 [18]
  fold change (FC): 1.4
[19]
  fold change (FC): 1
[20]
  fold change (FC): 0.4
[21]
  fold change (FC): 0.4
[22]
  fold change (FC): 0.5
DBTRG-05MG [23]
  fold change (FC): 2.2
RG2 [24]
  fold change (FC): 0.9
RG2 [25]
  fold change (FC): 1.6
DBTRG-05MG [26]
  Activity: Active
RG2 [27]
  fold change (FC): 1.1
RG2 [28]
  fold change (FC): 1.6
DBTRG-05MG [29]
  Activity: Active

## Cn1nnc2c(C(N)=O)ncn2c1=O [TEMOZOLOMIDE]
DBTRG-05MG [30]
  Activity: 43.53%
RG2 [31]
  Activity: 52.7%
DBTRG-05MG [32]
  fold change (FC): 1.3
RG2 [33]
  fold change (FC): 1.3
